Data: patent US7071177B2, “P-(sulfonyl) aryl and heteroarylamines as anti-inflammatory agents” (Syntex (U.S.A.) LLC, priority 2000, dated 2006)

| Structure (SMILES) | melting point [°C] |
| --- | --- |
| CS(=O)(=O)CCN(Cc1ccccn1)c1ccc(S(C)(=O)=O)cc1 [1-45, 4-{N,N-[2-(methylsulfonyl)ethyl](pyridin-2-ylmethyl)amino}phenyl methyl sulfone] | 139.5 to 140.5 |
| CCOc1ccc(CN(CCS(C)(=O)=O)c2ccc(S(C)(=O)=O)c(F)c2)cc1 [1-72, (4-ethoxy-benzyl)-(3-fluoro-4-methanesulfonyl-phenyl)-(2-methanesulfonyl-ethyl)-amine] | 56 to 59 |

Results, then the compound that gave them:

| melting point [°C] | Structure (SMILES) |
| --- | --- |
| 85.7 to 86.6 | COc1ccc(CNS(=O)(=O)c2ccc(N(CCS(C)(=O)=O)Cc3ccc(C)cc3)cc2)cc1 [2-1, 4-[(2-methylsulfonyl-ethyl)-(4-methyl-benzyl)amino]-N-(4-methoxy-benzyl)-benzenesulfonamide] |
| 169.1 to 170 | Cc1ccc(CN(CCS(C)(=O)=O)c2ccc(S(N)(=O)=O)cc2)cc1 [2-2, 4-[(2-methylsulfonyl-ethyl)-(4-methyl-benzyl)-amino]-benzenesulfonamide] |
| 152.9 to 153.2 | CS(=O)(=O)CCN(Cc1ccc(F)cc1F)c1ccc(S(N)(=O)=O)cc1 [2-4, 4-[(2-methylsulfonyl-ethyl)-(2,4-difluorobenzyl)-amino]-benzenesulfonamide] |
